# Measurements taken from patent US10723753B2, “Ras inhibitors and uses thereof” (Dana-Farber Cancer Institute, Inc., priority 2013, dated 2020).
# Molecular target: K-Ras G12C (Homo sapiens, UniProt P01116, G12C)
# Experiment: Fluorescence polarization assay of K-Ras G12C binding to Oregon green labelled RBD
# Settings: for EC50: Ras:Raf (RBD) binding, 95% CI given alongside, read-out: EC50 of nucleotide:Ras complex for RBD
# Description: Oregon green (OG) fluorescent dye was coupled to this cysteine in RBD using maleimide chemistry resulting in covalent addition of one OG, as verified by chromatography and mass spectrometry.
# This allowed the testing of multiple nucleotides for their ability to induce Ras:Raf binding.
SMILES,Effect on binding of G12C K-Ras to the RBD protein (added at a 1:10 molar ratio to G12C K-Ras prior to the assay),EC50 (fluorescence polarization),"Interaction of ligand-bound K-Ras G12C with RBD (fluorescence polarization, OG-labelled RBD, recombinant K-Ras G12C bound to the named ligand)"
"CCCC(CCC)COC(=O)[C@H](C)NP(=O)(OCCNC(=O)CCl)OP(=O)(O)OC[C@H]1O[C@@H](n2cnc3c(=O)[nH]c(N)nc32)[C@H](O)[C@@H]1O (stereo partly drawn) [Example 3, (2S)-2-propylpentyl 2-(((((((2R,3S,4R,5R)-5-(2-amino-6-oxo-1H-purin-9(6H)-yl)-3,4-dihydroxytetrahydrofuran-2-yl)methoxy)(hydroxy)phosphoryl)oxy)(2-(2-chloroacetamido)ethoxy)phosphoryl)amino)propanoate]",appeared to prevent binding,–,–
Nc1nc2c(ncn2[C@@H]2O[C@H](COP(=O)(O)OP(=O)(O)O)[C@@H](O)[C@H]2O)c(=O)[nH]1 [GDP],–,0.108 µM,–
Nc1nc2c(ncn2[C@@H]2O[C@H](COP(=O)(O)OP(=O)(O)OP(=O)(O)O)[C@@H](O)[C@H]2O)c(=O)[nH]1 [GTP],–,0.026 µM,higher affinity for RBD than the GDP bound form
